Source: patent US7235518B2, “Fabric care compositions comprising hueing dye” (The Procter & Gamble Company, priority 2004, dated 2007)

What was measured:
[1] = Water solubility of brightener; type: physicochemical
Description: Brighteners should have some water solubility for easy incorporation into the fabric conditioning composition. […] Fluorescent whitening agents, generally due to their low water solubility, are difficult to incorporate into liquid fabric conditioning compositions. Often it is advantageous to post-add brighteners to a finished base product. One convenient way to do this is to make a brighteners premix.

[2] = Chemical stability of brightener in acidic product matrix; type: physicochemical; conditions: biodegradable fabric conditioning compositions, pH from about 3 to about 4

water solubility ([1]; 25 C): 2.5%
water solubility ([1]; 25° C.): about 2.5 weight percent
chemical stability in the acidic product matrix [2]: better than some other brighteners
SMILES: O=S(=O)(O)c1ccccc1C=Cc1ccc(-c2ccc(C=Cc3ccccc3S(=O)(=O)O)cc2)cc1.[Na].[Na] [Tinopal CBS-X, Disodium 4,4′-bis-(2-sulfostyryl) biphenyl]
